“Also recorded” adds a separate entry of the source.
Tests used:
preterm birth = details: pregnant women, literature studies; cited from earlier work
[1] = test system: LPS-induced fetal wastage in pregnant mice; assay: LPS-induced inflammation mouse model of fetal wastage; format: in vivo; details: 3× drug + LPS-100 compared with LPS-100 alone
Source text: FIG. 3A and FIG. 3B depict results from LPS-induced inflammation mouse model of fetal wastage. Circles represent results from independent mouse pregnancies. Error bars represent mean ±SD. Comparisons were made using the Student's two-sided t-test. […] FIG. 3B: The LPS-100 group compared to the P4 positive control group (3×P4+LPS-100) and the lansoprazole treatment group (3×lansoprazole+LPS-100).
Statistical Analysis. Reversal scores were generated for sPTB-drug pairs using a non-parametric, rank-based method based on the Kolgomorov-Smirnov test. Reversal score p-values were obtained by comparing to a distribution of 100,000 random scores and then adjusted via FDR for multiple comparisons. […] To ensure that the significance of the score is specific to the drug in question, for one candidate drug, lansoprazole, we also compared 1,000 random input signatures to the lansoprazole profile. […] For testing the distributions in the mouse model studies, comparisons were made using the 2-tailed Student's t-test and adjusted via FDR for multiple comparisons. A P value less than 0.05 was considered significant.
Inflammation-induced mouse model validation of lansoprazole. Despite having the highest reversal score, cefotaxime shares few protein interactions. Lansoprazole has the next highest reversal score. Moreover, lansoprazole is available over-the-counter, whereas cefotaxime requires a prescription. […]

| Structure (SMILES) | rate of preterm birth in past studies (preterm birth) | number of viable fetuses at E12.5 [1] | number of viable fetuses at E12.5 ([1]; listed as P4) |
| --- | --- | --- | --- |
| Clc1ccccc1C(c1ccccc1)(c1ccccc1)n1ccnc1 [clotrimazole] | significant reduction in the rate of PTB |  |  |
| Nc1nc2ncc(CNc3ccc(C(=O)N[C@@H](CCC(=O)O)C(=O)O)cc3)nc2c(=O)[nH]1 [folic acid] | possible reduction of preterm birth |  |  |
| Cc1c(OCC(F)(F)F)ccnc1C[S+]([O-])c1nc2ccccc2[nH]1 (stereo not drawn) [lansoprazole] |  | significantly effective in recovering the number of viable fetuses; also recorded: significantly (P<0.05) increase the number of viable fetuses |  |
| CN(C)C(=N)N=C(N)N [metformin] | reduce the rate of PTB compared with placebo |  |  |
| CC(=O)[C@H]1CC[C@H]2[C@@H]3CCC4=CC(=O)CC[C@]4(C)[C@H]3CC[C@]12C [progesterone] | effective in reducing the rate of sPTB |  | showed some effectiveness at recovering the number of viable fetuses |
